# Laboratory results from US8501804B2, “Bicyclic compound” (Takeda Pharmaceutical Company Limited, priority 2008, dated 2013).
# Assays:
# human ACC1 = target: T1, human ACC1 (Homo sapiens, UniProt Q13085); test: ACC1 inhibitory activity (malachite green); assay type: biochemical; conditions: test compound 10 μM; for inhibition at 10 µM: read-out: ACC1 10 μM inhibitory rate (%)
# T1 construct: His6 (from vector pFAST-BacHTc); made in house; host or cells: SF-9 insect cells, recombinant baculovirus BAC-ACC1
# Protocol: The ACC1 inhibitory action of the compound of the present invention was evaluated by the following method.
# (1) Cloning of Human ACC1 Gene and Preparation of Recombinant Baculovirus
# (§1) Human ACC1 gene was cloned by PCR using a human liver cDNA library (Clontech) as a template and Primer 1 and Primer 2 shown below. Primer 1 and Primer 2 were prepared by adding SalI, NotI restriction enzyme recognition sequences based on the information of the base sequence of human ACC1 gene (Genbank Accession U19822).
# (§2) PCR was performed using Pyrobest DNA polymerase (TAKARA BIO INC.). The obtained PCR product was cloned to pT7 Blue vector (Novagen) and, after confirmation of the base sequence, digested with restriction enzymes SalI and NotI. The obtained DNA fragment was inserted into pFAST-BacHTc (Invitrogen) digested with restriction enzymes SalI and NotI to give expression plasmid ACC1/pFAST-BacHTc.
# Using the expression plasmid ACC1/pFAST-BacHTc and BAC-TO-BAC Baculovirus Expression System (Invitrogen), virus stock BAC-ACC1 of recombinant Baculovirus was prepared.
# (2) Preparation of ACC1 Protein
# (§3) SF-9 cells (Invitrogen) were inoculated to a medium (1 L) for insect cells (Sf-900IISFM medium (Invitrogen) containing 10% fetal bovine serum (Trace), 50 mg/L Gentamicin (Invitrogen), 0.1% Pluronic F-68 (Invitrogen)) at 1×10^6 cells/mL, and cultured with shaking in 2 L meyer at 27° C., 100 rpm.
# After 24 hr of the culture, 10 mL of recombinant Baculovirus BAC-ACC1 was added, and the cells were cultured for 3 days. The culture medium was centrifuged at 1000×g for 5 min to give virus-infected cells. The cells were washed with phosphate buffered saline (Invitrogen) and centrifuged under the same conditions. The obtained cells were cryopreserved at −80° C.
# The cryopreserved cells were thawed in ice and suspended in 100 mL of 25 mM HEPES buffer (pH 7.5) containing 10% Glycerol, 0.13 M NaCl, 1 mM EDTA, 25 mM Sodium […] and 1 mM Sodium Orthovanadate, and supplemented with Complete Protease Inhibitor (Nippon Boehringer Ingelheim Co., Ltd.). The obtained suspension was homogenized three times in a polytron homogenizer (Kinematica) at 20,000 rpm for 30 sec. The obtained cell disruption solution was clarified by centrifugation at 185700×g for 50 min, and filtered through a 0.45 μm filter. The filtrate was passed through a column packed with 12 ml of Ni-NTA Super Flow Gel (QUIAGEN) at a flow rate of about 5 mL/min. The column was washed with buffer A (50 mM HEPES (pH 7.5) containing 0.3 M NaCl), further washed with buffer A containing 20 mM Imidazole, and eluted with buffer A containing 100 mM Imidazole. The eluate was concentrated with Vivaspin 20 (Vivascience) with a molecular weight cut off of 30K. The obtained concentrate was dialyzed against Sephadex G-25 (Amersham Biosciences, 358 mL) equilibrated with 50 mM HEPES (pH 7.5) containing 10 mM MgCl2, 2 mM Dithiothreitol, 10 mM Tripotassium Citrate and 0.3 M NaCl. The inner dialysate was concentrated with Vivaspin 20 (Vivascience) with molecular weight cut off of 30K, and concentrate was filtered through a 0.22 μm filter to give ACC1. The obtained ACC1 was cryopreserved at −80° C.
# (3) Measurement of ACC1 Inhibitory Activity
# ACC1 (0.93 mg/ml) obtained in the above-mentioned (2) was diluted with an enzyme reaction buffer (50 mM HEPES (pH 7.5), 10 mM MgCl2, 10 mM Tripotassium Citrate, 2 mM Dithiothreitol, 0.75 mg/ml Fatty acid free BSA) to a concentration of 8 μg/ml, and the mixture was added to each well of a 384 well assay plate (Nunc 265196) by 10 μl. A test compound was dissolved in dimethyl sulfoxide (DMSO) and the mixture was diluted with an enzyme reaction buffer and the resulting solution (5 μl) was added to each well. The mixture was incubated at 30° C. for 60 min. Then, a substrate solution (50 mM KHCO3, 200 μM ATP, 200 μM Acetyl-CoA, 5 μl) was added to each well, and the mixture was reacted at 30° C. for 20 min (test compound addition group). […]
# human ACC2 (Nd) = target: T2, human ACC2 (Nd) (Homo sapiens, UniProt O00763); test: ACC2 inhibitory activity (malachite green); assay type: biochemical; conditions: test compound 10 μM; for inhibition at 10 µM: read-out: ACC2 10 μM inhibitory rate (%)
# T2 construct: His6 (from vector pFAST-BacHTa); made in house; host or cells: SF-9 insect cells, recombinant baculovirus BAC-ACC2 (Nd)
# T2 sequence (O00763 117-2458 limits assumed): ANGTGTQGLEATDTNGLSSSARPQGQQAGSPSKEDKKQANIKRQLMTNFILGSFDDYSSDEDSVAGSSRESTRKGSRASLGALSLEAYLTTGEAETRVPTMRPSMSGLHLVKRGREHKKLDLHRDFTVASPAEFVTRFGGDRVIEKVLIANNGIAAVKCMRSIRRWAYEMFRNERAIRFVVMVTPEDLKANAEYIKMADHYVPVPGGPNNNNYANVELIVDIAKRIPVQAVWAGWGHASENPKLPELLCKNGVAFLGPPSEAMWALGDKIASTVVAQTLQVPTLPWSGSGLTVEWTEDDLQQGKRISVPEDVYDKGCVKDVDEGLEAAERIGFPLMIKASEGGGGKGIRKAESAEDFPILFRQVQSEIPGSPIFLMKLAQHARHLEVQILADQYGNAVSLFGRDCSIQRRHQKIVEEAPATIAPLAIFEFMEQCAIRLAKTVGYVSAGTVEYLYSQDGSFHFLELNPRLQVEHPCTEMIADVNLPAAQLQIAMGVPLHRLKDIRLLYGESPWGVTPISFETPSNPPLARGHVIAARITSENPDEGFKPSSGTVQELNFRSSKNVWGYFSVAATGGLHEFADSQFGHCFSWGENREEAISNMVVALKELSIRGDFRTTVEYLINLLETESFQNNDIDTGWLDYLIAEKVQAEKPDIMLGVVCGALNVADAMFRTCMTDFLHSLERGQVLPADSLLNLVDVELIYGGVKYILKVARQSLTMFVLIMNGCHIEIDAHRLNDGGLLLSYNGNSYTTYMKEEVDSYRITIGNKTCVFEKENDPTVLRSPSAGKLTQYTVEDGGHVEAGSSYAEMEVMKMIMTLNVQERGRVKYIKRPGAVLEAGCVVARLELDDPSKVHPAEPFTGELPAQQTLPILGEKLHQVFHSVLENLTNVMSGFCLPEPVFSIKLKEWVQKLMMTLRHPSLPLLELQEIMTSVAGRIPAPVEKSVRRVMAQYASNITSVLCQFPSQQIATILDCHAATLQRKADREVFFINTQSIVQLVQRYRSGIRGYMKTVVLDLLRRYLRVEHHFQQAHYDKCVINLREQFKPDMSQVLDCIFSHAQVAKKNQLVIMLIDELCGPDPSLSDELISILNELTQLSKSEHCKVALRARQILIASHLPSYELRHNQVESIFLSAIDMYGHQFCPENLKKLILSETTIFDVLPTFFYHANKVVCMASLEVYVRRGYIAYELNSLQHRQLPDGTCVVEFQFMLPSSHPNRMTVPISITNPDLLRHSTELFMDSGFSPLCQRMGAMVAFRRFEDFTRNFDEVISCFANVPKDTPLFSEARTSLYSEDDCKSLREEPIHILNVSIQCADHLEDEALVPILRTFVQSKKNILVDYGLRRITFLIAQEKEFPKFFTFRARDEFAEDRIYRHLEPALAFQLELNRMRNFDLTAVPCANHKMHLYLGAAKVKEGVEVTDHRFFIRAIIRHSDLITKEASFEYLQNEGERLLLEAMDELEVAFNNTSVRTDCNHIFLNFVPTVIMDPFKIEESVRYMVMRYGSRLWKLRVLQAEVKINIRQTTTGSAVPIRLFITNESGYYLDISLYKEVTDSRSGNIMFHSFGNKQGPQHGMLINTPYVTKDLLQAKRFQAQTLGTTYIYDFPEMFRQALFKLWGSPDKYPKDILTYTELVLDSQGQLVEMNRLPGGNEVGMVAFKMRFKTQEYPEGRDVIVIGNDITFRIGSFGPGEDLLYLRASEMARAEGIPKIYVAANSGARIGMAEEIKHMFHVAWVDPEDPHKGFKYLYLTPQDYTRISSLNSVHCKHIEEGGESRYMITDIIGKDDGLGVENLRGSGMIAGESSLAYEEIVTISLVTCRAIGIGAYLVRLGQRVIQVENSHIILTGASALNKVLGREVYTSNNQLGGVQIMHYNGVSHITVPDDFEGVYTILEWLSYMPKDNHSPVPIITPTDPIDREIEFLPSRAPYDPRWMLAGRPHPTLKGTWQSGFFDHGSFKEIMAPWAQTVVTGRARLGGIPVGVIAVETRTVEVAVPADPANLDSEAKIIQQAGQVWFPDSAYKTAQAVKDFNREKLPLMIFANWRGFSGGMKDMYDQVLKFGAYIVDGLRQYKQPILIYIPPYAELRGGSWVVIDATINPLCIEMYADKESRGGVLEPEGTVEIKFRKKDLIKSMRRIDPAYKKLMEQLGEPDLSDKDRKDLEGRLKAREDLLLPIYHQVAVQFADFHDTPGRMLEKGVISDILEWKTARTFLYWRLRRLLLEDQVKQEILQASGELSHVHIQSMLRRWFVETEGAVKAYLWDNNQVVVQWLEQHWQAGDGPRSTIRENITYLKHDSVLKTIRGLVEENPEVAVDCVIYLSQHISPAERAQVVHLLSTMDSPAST
# Protocol: The ACC2 inhibitory action of the compound of the present invention was evaluated by the following method.
# (1) Cloning of Human ACC2 Gene and Preparation of Recombinant Baculovirus
# as §1, with “ACC2” for “ACC1”, “skeletal muscle” for “liver”, “XbaI” for “NotI”, “U89344).” for “U19822).”
# as §2, with “XbaI.” for “NotI.”, “pFAST-BacHTa” for “pFAST-BacHTc”, “XbaI” for “NotI”, “ACC2/pFAST-BacHTa.” for “ACC1/pFAST-BacHTc.”
# A plasmid for expression of ACC2 without a mitochondrial targeting sequence was prepared by PCR using the expression plasmid as a template, and Primer 3 (SalI restriction enzyme recognition sequence was added) and Primer 4 prepared by reference to the information of human ACC2 gene base sequence (Genbank Accession U89344).
# as §2, with “Pyrobest-DNA” for “Pyrobest DNA”, “AflII.” for “NotI.”, “ACC2/pFAST-BacHTa” for “pFAST-BacHTc (Invitrogen)”, “AflII” for “NotI”, “ACC2mito7/pFAST-BacHTa.” for “ACC1/pFAST-BacHTc.”
# Using the expression plasmid ACC2mito7/pFAST-BacHTa and BAC-TO-BAC Baculovirus Expression System (Invitrogen), virus stock BAC-ACC2 of recombinant Baculovirus (N terminal deleted (hereinafter Nd)) was prepared.
# (2) Preparation of ACC2 (Nd) Protein
# as §3, with “(2” for “(1”, “0.5×10^6” for “1×10^6”, “Wave Bioreactor (Wave)” for “2 L meyer”, “20 rpm, rocking angle 6°, oxygen concentration 30%.” for “100 rpm.”
# On day 4 of the culture, 3 L of the medium for insect cells was added, the rocking angle was set to 8°, and the cells were cultured. On day 5 of the culture, 100 ml of recombinant Baculovirus BAC-ACC2 (Nd) was added, 5 L of the medium for insect cells was further added, the rocking angle was set to 11°, and the cells were cultured for 3 days. The culture medium was centrifuged at 1000×g for 10 min to give virus-infected cells. The cells were washed with phosphate buffered saline (Invitrogen) and centrifuged under the same conditions. The obtained cells were cryopreserved at −80° C.
# The cryopreserved cells were thawed in ice and suspended in 900 ml of 25 mM HEPES buffer (pH 7.5) containing 10% Glycerol, 0.13 M NaCl, 1 mM EDTA, 25 mM Sodium β-Glycerophosphate and 1 mM Sodium Orthovanadate, and supplemented with Complete Protease Inhibitor (Nippon Boehringer Ingelheim Co., Ltd.). The obtained suspension was homogenized three times in a polytron homogenizer (Kinematica) at 20,000 rpm for 30 sec. The obtained cell disruption solution was clarified by centrifugation at 31000×g for 60 min, and filtered through a 0.45 μm filter. The filtrate was passed through a column packed with 60 mL of Ni-NTA Super Flow Gel (QUIAGEN) at a flow rate of about 5 mL/min. The column was washed with buffer A (50 mM HEPES (pH 7.5) containing 0.3 M NaCl), further washed with buffer A containing 20 mM Imidazole, and eluted with buffer A containing 100 mM Imidazole. The eluate was concentrated with Vivaspin 20 (Vivascience) with a molecular weight cut off of 30K. The obtained concentrate was dialyzed against 50 mM HEPES (pH 7.5) containing 10 mM MgCl2, 2 mM Dithiothreitol, 10 mM Tripotassium Citrate and 0.3 M NaCl. The inner dialysate was filtered through a 0.22 μm filter to give ACC2 (Nd). […]
SMILES,inhibition at 10 µM (human ACC1),inhibition at 10 µM (human ACC2 (Nd)),ACC1 10 μM inhibitory rate (%) (human ACC1),ACC2 10 μM inhibitory rate (%) (human ACC2 (Nd))
"CC(=O)NC(C)c1cc2cc(OCc3ccc(OCC4CC4)cc3Cl)ccc2o1 (centres unmarked) [Example 134 (retention time longer), N-[1-(5-{[2-chloro-4-(cyclopropylmethoxy)benzyl]oxy}-1-benzofuran-2-yl)ethyl]acetamide]",33%,55%,,
"CCOc1ccc(CCc2cc3oc(C(C)NC(C)=O)cc3cn2)cc1 (centres unmarked) [Example 135, N-(1-{6-[2-(4-ethoxyphenyl)ethyl]furo[3,2-c]pyridin-2-yl}ethyl)acetamide]",14%,81%,,
"CC(=O)NC(C)c1cc2ccc(C#Cc3ccc(OCC4CC4)nc3)cc2o1 (centres unmarked) [Example 138, N-[1-(6-{[6-(cyclopropylmethoxy)pyridin-3-yl]ethynyl}-1-benzofuran-2-yl)ethyl]acetamide]",22%,70%,,
"CC(=O)N[C@@H](C)[C@@H]1Cc2ccc(C#Cc3ccc(OCC4CC4)nc3)cc2O1 [Example 139, N-{(1S)-1-[(2S)-6-{[6-(cyclopropylmethoxy)pyridin-3-yl]ethynyl}-2,3-dihydro-1-benzofuran-2-yl]ethyl}acetamide]",37%,100%,,
"CC(=O)NC(C)C1Cc2cc(OCc3ccc(OCC4CC4)cc3F)ccc2O1 (centres unmarked) [Example 140, N-[1-(5-{[4-(cyclopropylmethoxy)-2-fluorobenzyl]oxy}-2,3-dihydro-1-benzofuran-2-yl)ethyl]acetamide]",,,20%,66%
"CC(=O)NC(C)C1Cc2cc(OCc3ccc(OCC4CC4)cc3F)ccc2O1 (centres unmarked) [Example 141 (retention time shorter), N-[1-(5-{[4-(cyclopropylmethoxy)-2-fluorobenzyl]oxy}-2,3-dihydro-1-benzofuran-2-yl)ethyl]acetamide]",,,41%,95%
"CC(=O)N[C@@H](C)[C@@H]1Cc2ccc(OCc3cnc(OCC4CC4)cc3F)cc2O1 [Example 142, N-{(1S)-1-[(2S)-6-{[6-(cyclopropylmethoxy)-4-fluoropyridin-3-yl]methoxy}-2,3-dihydro-1-benzofuran-2-yl]ethyl}acetamide]",42%,74%,,
"CC(=O)N[C@@H](C)[C@@H]1Cc2ccc(OCc3ccc(OCC4CC4)nc3F)cc2O1 [Example 143, N-{(1S)-1-[(2S)-6-{[6-(cyclopropylmethoxy)-2-fluoropyridin-3-yl]methoxy}-2,3-dihydro-1-benzofuran-2-yl]ethyl}acetamide]",8%,73%,,
"CC(=O)N[C@@H](C)[C@@H]1Cc2ccc(OCc3ccc(OCC4CC4)cc3)cc2O1 [Example 144, N-{(1S)-1-[(2S)-6-{[4-(cyclopropylmethoxy)benzyl]oxy}-2,3-dihydro-1-benzofuran-2-yl]ethyl}acetamide]",48%,88%,,
"CC(=O)N[C@@H](C)[C@@H]1Cc2ccc(OCc3ccc(OCC4CC4)cc3F)cc2O1 [Example 145, N-{(1S)-1-[(2S)-6-{[4-(cyclopropylmethoxy)-2-fluorobenzyl]oxy}-2,3-dihydro-1-benzofuran-2-yl]ethyl}acetamide]",42%,88%,,
"CC(=O)N[C@@H](C)[C@@H]1Cc2ccc(OCc3ccc(OC[C@@H]4CCCO4)cc3F)cc2O1 [Example 146, N-{(1S)-1-[(2S)-6-({2-fluoro-4-[(2S)-tetrahydrofuran-2-ylmethoxy]benzyl}oxy)-2,3-dihydro-1-benzofuran-2-yl]ethyl}acetamide]",40%,84%,,
"CC(=O)NC(C)c1cc2ccc(CCc3ccc(OCC4CC4)cc3)cc2o1 (centres unmarked) [Example 150, N-[1-(6-{2-[4-(cyclopropylmethoxy)phenyl]ethyl}-1-benzofuran-2-yl)ethyl]acetamide]",27%,81%,,
"CC(=O)NC(C)c1cc2ccc(CCc3ccc4c(c3)C(C)(C)CO4)cc2o1 (centres unmarked) [Example 152, N-(1-{6-[2-(3,3-dimethyl-2,3-dihydro-1-benzofuran-5-yl)ethyl]-1-benzofuran-2-yl}ethyl)acetamide]",39%,78%,,
